Laboratory results taken from patent US20250241879A1, “CAPSAICIN SEQUENTIAL DOSING METHOD FOR TREATMENT OF KNEE JOINT PAIN” (priority 2018, published 2025).

Key:
[1] = system: human patients with bilateral knee osteoarthritis; experiment: Procedure pain (NPRS) due to intraarticular trans-capsaicin, shortened cooling protocol, Breg pad vs Elasto-Gel wrap (Example 9); type: in vivo; conditions: four patients (Example 9), 1 mg intraarticular
Experimental: (§1) Human patients experiencing osteoarthritic knee joint pain were subjected to two different protocols for intraarticular administration of trans-capsaicin. Temporary pain expected due to administration of capsaicin was analyzed, along with the intraarticular temperature of the knee joint and the temperature of the patient's skin in the area to be cooled.
(§2) One of the protocols utilized a Breg Knee WrapOn Polar Pad (as illustrated in FIG. 1) that utilizes circulating ice-water to achieve cooling, where the pad is placed on skin surrounding the knee in order to cool the knee joint. The other protocol utilized an Elasto-Gel All Purpose Therapy Wrap measuring 6 inches by 24 inches in size to cool the knee joint. The Elasto-Gel All Purpose Therapy Wrap was removed from a freezer (approximately 0° F.) just prior to use. A temperature probe was placed into the intraarticular space of the patient's knee joint to measure intraarticular temperature of the knee joint. A temperature probe was also placed on the skin in the area to be cooled in order to measure skin temperature in the area to be cooled. […]
as §2, with “by 24 inches, whereby the wrap is placed around the knee joint in order” for “by 24 inches in size”, “joint in order to cool” for “inches in size to cool”, “knee joint. At the discretion of the physician performing the procedure, in order to reduce discomfort for the patient, the protocol authorized the physician to instill a volume of 1-2 cc of 2% w/w lidocaine (without epinephrine) into the skin and subcutaneous tissue of the knee at the site of intra-articular probe insertion. A temperature” for “knee joint. A temperature”
Patients receiving cooling of the knee joint using the Elasto-Gel All Purpose Therapy Wrap were subjected to the following procedure: • Placement of intraarticular temperature probe and skin temperature probe. At the discretion of the physician performing the procedure, in order to reduce discomfort for the patient, the protocol authorized the physician to instill a volume of 1-2 cc of 2% w/w lidocaine (without epinephrine) into the skin and subcutaneous tissue of the knee at the site of intra-articular probe insertion. • Cooling using the designated technique was performed for 30 minutes (+/−2 minutes). • Cooling apparatus was removed from the patient's knee. • Intraarticular injection of lidocaine 2% w/w (without epinephrine) 15 mL solution into the patient's knee joint. • Intraarticular injection of the investigational medicinal product (IMP) was performed to deliver trans-capsaicin in the amount of 1 mg. The trans-capsaicin was injected, using the same needle as the lidocaine 2% w/w (without epinephrine), 3 minutes after the intra-articular injection of lidocaine 2% w/w (without epinephrine). The IMP was provided as a pre-filled syringe containing 2 mL of fluid containing trans-capsaicin at a concentration of 0.5 mg/mL. • Knee joint was flexed and extended five times over 1 minute to ensure appropriate distribution of IMP. • The temperature probe was removed approximately 30 minutes after removal of the cooling apparatus.
Pain due to injection of trans-capsaicin was assessed on a Numerical Pain Rating scale (0-10) for 75 minutes after injection of trans-capsaicin. A verbal NPRS was used to assess procedure pain during the study. […]

[2] = system: human patients with knee osteoarthritis; experiment: Procedure pain (NPRS) due to intraarticular trans-capsaicin, Breg pad vs Elasto-Gel wrap cooling (Example 8); type: in vivo; conditions: four patients (Example 8), 1 mg intraarticular
Experimental: as §1
One of the protocols utilized a Breg Knee WrapOn Polar Pad (as illustrated in FIG. 1) that utilizes circulating ice-water to achieve cooling, where the pad is placed on skin surrounding the knee in order to cool the knee joint. The other protocol utilized an Elasto-Gel All Purpose Therapy Wrap measuring 6 inches by 24 inches in size, in order to cool the knee joint. A temperature probe was placed into the intraarticular space of the patient's knee joint to measure intraarticular temperature of the knee joint. A temperature probe was also placed on the skin in the area to be cooled in order to measure skin temperature in the area to be cooled.
Experimental procedure used was the same as described in Example 8 herein, except that an Elasto-Gel All Purpose Therapy Wrap measuring 6 inches by 24 inches in size was used to cool the knee joint, in lieu of the ice pack. The Elasto-Gel All Purpose Therapy Wrap was removed from a freezer (approximately 0° F.) just prior to use.

[3] = Ice-Gel Pack (Elasto-Gel wrap), 30 min
[4] = Ice-Gel Pack (Elasto-Gel wrap), 50 min
[5] = Ice-Gel Pack (Elasto-Gel wrap), 70 min
[6] = Ice-Gel Pack (Elasto-Gel wrap), 80 min
[7] = Ice-Gel Pack (Elasto-Gel wrap), 90 min
[8] = Ice-Gel Pack (Elasto-Gel wrap), 100 min
[9] = Ice-Gel Pack (Elasto-Gel wrap), 110 min
[10] = Ice-Gel Pack (Elasto-Gel wrap), Baseline
[11] = Standard Cooling Device (Breg pad), 30 min
[12] = Standard Cooling Device (Breg pad), 50 min
[13] = Standard Cooling Device (Breg pad), 70 min
[14] = Standard Cooling Device (Breg pad), 80 min
[15] = Standard Cooling Device (Breg pad), 90 min
[16] = Standard Cooling Device (Breg pad), 100 min
[17] = Standard Cooling Device (Breg pad), 110 min
[18] = Standard Cooling Device (Breg pad), Baseline

## COc1cc(CNC(=O)CCCCC=CC(C)C)ccc1O [trans-capsaicin, N-[(4-hydroxy-3-methoxyphenyl)methyl]-8-methylnon-6-enamide]
[1]; [3]
  Knee Pain (NPRS): 0.0 (+/−0.0)
[1]; Ice-Gel Pack (Elasto-Gel wrap), 40 min
  Knee Pain (NPRS): 0.0 (+/−0.0)
[1]; [4]
  Knee Pain (NPRS): 1.5 (+/−2.4)
[1]; Ice-Gel Pack (Elasto-Gel wrap), 60 min
  Knee Pain (NPRS): 2.8 (+/−3.1)
[1]; [5]
  Knee Pain (NPRS): 1.0 (+/−0.8)
[1]; [6]
  Knee Pain (NPRS): 1.8 (+/−2.9)
[1]; [7]
  Knee Pain (NPRS): 2.5 (+/−2.9)
[1]; [8]
  Knee Pain (NPRS): 1.8 (+/−2.9)
[1]; [9]
  Knee Pain (NPRS): 0.8 (+/−1.5)
[1]; [10]
  Knee Pain (NPRS): 0.3 (+/−0.5)
[1]; [11]
  Knee Pain (NPRS): 0.0 (+/−0.0)
[1]; Standard Cooling Device (Breg pad), 40 min
  Knee Pain (NPRS): 0.5 (+/−1.0)
[1]; [12]
  Knee Pain (NPRS): 3.8 (+/−2.9)
[1]; Standard Cooling Device (Breg pad), 60 min
  Knee Pain (NPRS): 1.8 (+/−2.4)
[1]; [13]
  Knee Pain (NPRS): 1.0 (+/−2.0)
[1]; [14]
  Knee Pain (NPRS): 2.0 (+/−4.0)
[1]; [15]
  Knee Pain (NPRS): 1.5 (+/−2.4)
[1]; [16]
  Knee Pain (NPRS): 0.5 (+/−1.0)
[1]; [17]
  Knee Pain (NPRS): 2.0 (+/−4.0)
[1]; [18]
  Knee Pain (NPRS): 0.0 (+/−0.0)
[2]; Ice-Gel Pack (Elasto-Gel wrap), 20 min
  Knee Pain (NPRS): 0.8 (+/−0.5)
[2]; [3]
  Knee Pain (NPRS): 0.5 (+/−0.6)
[2]; [4]
  Knee Pain (NPRS): 0.8 (+/−1.0)
[2]; [5]
  Knee Pain (NPRS): 4.8 (+/−3.2)
[2]; [6]
  Knee Pain (NPRS): 4.3 (+/−3.0)
[2]; [7]
  Knee Pain (NPRS): 3.0 (+/−1.8)
[2]; [8]
  Knee Pain (NPRS): 2.8 (+/−1.5)
[2]; [9]
  Knee Pain (NPRS): 2.8 (+/−2.1)
[2]; Ice-Gel Pack (Elasto-Gel wrap), 120 min
  Knee Pain (NPRS): 4.5 (+/−3.3)
[2]; Ice-Gel Pack (Elasto-Gel wrap), 130 min
  Knee Pain (NPRS): 3.0 (+/−1.4)
[2]; [10]
  Knee Pain (NPRS): 1.0 (+/−0.8)
[2]; Standard Cooling Device (Breg pad), 20 min
  Knee Pain (NPRS): 0.5 (+/−0.6)
[2]; [11]
  Knee Pain (NPRS): 0.5 (+/−0.6)
[2]; [12]
  Knee Pain (NPRS): 0.8 (+/−1.0)
[2]; [13]
  Knee Pain (NPRS): 2.5 (+/−3.7)
[2]; [14]
  Knee Pain (NPRS): 2.5 (+/−3.0)
[2]; [15]
  Knee Pain (NPRS): 2.5 (+/−2.4)
[2]; [16]
  Knee Pain (NPRS): 1.8 (+/−1.5)
[2]; [17]
  Knee Pain (NPRS): 1.8 (+/−1.5)
[2]; Standard Cooling Device (Breg pad), 120 min
  Knee Pain (NPRS): 1.3 (+/−1.3)
[2]; Standard Cooling Device (Breg pad), 130 min
  Knee Pain (NPRS): 1.5 (+/−1.0)
[2]; [18]
  Knee Pain (NPRS): 0.5 (+/−0.6)
